Laboratory results from US5318989A, “Cytotoxic bicyclo [7.3.1.]tridec-4-ene-2,6-diyne compounds and process for the preparation thereof” (Bristol-Myers Squibb Company, priority 1992, dated 1994).
In brackets after ≈: the same amount, converted by molar mass. Several values for one entry are separate records, joined by “and”; a condition that tells them apart may be missing. Identical values can stand only once. Like-named read-outs stand apart in the source and are kept apart here.

Tests used:
P388 leukemia = experiment: In vivo activity against transplantable murine P388 leukemia in CDF1 mice; conditions: for Survival d.5: day 5; for Med. Survival Time / % T/C: intraperitoneal; for Med. Survival Time: 5 consecutive days from day 1, control 11 d; for % T/C: 5 consecutive days, 125 or greater is significant
Description: The compound of Example 4 was also evaluated against transplantable murine P388 leukemia. CDF1 mice were implanted intraperitoneally with a tumor inoculum of 10^6 cells of P388 leukemia and treated with various doses of the test compound Six mice were used for each dose level and 10 mice were treated with saline to serve as control. The test compound was administered intraperitoneally on 5 consecutive days starting on day 1 after tumor implantation. Antitumor activity is expressed as % T/C which is the ratio of mean survival time (MST) for the drug-treated group to the MST of saline-treated control group.
A compound showing a % T/C of 125 or greater is considered to have significant antitumor activity.

[1] = test system: HCT-116 human colon tumor cell line; experiment: In vitro cytotoxicity assay; format: cell-based; conditions: three determinations
Description: (§1) Compound of Example 4 was evaluated in vitro against three human colon tumor cell lines: HCT-116, HCT/VM46, and HCT/VP35; the latter two are resistant to teniposide and etoposide, respectively. The in vitro cytotoxicity assay involved growing tumor cells on microtitre plates employing established tissue culture methods. The concentration of the test compound required to inhibit cell growth by 50% (IC50) was then determined by four-fold serial dilution technique. In the experiment, etoposide and teniposide were included as positive controls.

[2] = test system: HCT/VP35 human colon tumor cell line (etoposide-resistant); experiment: In vitro cytotoxicity assay; format: cell-based; conditions: three determinations
Description: as §1

[3] = test system: HCT/VM46 human colon tumor cell line (teniposide-resistant); experiment: In vitro cytotoxicity assay; format: cell-based; conditions: three determinations
Description: as §1

DNA = conditions: J. Org. Chem. 1989, 54:2781-2783; J. Am. Chem. Soc. 1989, 111:7638-7641; cited from earlier work
[4] = Homo sapiens, HCT-116, HCT-116, read-out: IC50
[5] = Homo sapiens, HCT/VP35, HCT/VP35, read-out: IC50

O=C1C2=CCCC1(O)C#C/C=C\C#CC2 (centres unmarked) [Example 15, 1-Hydroxy-bicylco[7.3.1]trideca-4,9-diene-2,6-diyne-13-one]
max. %T/C (P388 leukemia; at 40 mg/kg/dose, same protocol): 230%

1-Hydroxy-8-[[(2-quinoxolyamino)carbonyl]oxy]-bicyclo[7.3.1]trideca-4,7-diene-2,6-divn-13-one [Example 8]
max. %T/C (P388 leukemia; at 15 mg/kg/dose, same protocol): 145%

O=C(OC1C#CC=CC#CC2(O)CCC=C1C2=O)c1cnc2ccccc2n1 (centres unmarked) [Example 6]
mouse surviving on day 31 (P388 leukemia; 20 mg/kg/dose, day 31): one
maximum %T/C (P388 leukemia; at 20 mg/kg/dose, same protocol): 235%

COc1cc([C@@H]2c3cc4c(cc3[C@@H](O[C@@H]3O[C@@H]5CO[C@@H](c6cccs6)O[C@H]5[C@H](O)[C@H]3O)[C@H]3COC(=O)[C@H]23)OCO4)cc(OC)c1O [Teniposide]
IC50 ([1]; HCT-116): 0.088 µg/mL and 0.083 µg/mL
IC50 [1, 4]: 0.077 µg/mL (≈ 0.117 µM)
IC50 ([2]; HCT/VP35): 0.091 µg/mL and 0.111 µg/mL
IC50 [2, 5]: 0.084 µg/mL (≈ 0.128 µM)
IC50 ([3]; Homo sapiens, read-out: IC50): 0.313 µg/mL (≈ 0.477 µM)
IC50 [3]: 0.237 µg/mL and 0.236 µg/mL

COc1cc([C@@H]2c3cc4c(cc3[C@@H](O[C@@H]3O[C@@H]5CO[C@@H](C)O[C@H]5[C@H](O)[C@H]3O)[C@H]3COC(=O)[C@H]23)OCO4)cc(OC)c1O [Etoposide]
IC50 ([1]; HCT-116): 0.128 µg/mL and 0.140 µg/mL
IC50 [1, 4]: 0.101 µg/mL (≈ 0.172 µM)
IC50 ([2]; HCT/VP35): 6.29 µg/mL and 6.75 µg/mL
IC50 [2, 5]: 5.14 µg/mL (≈ 8.73 µM)

O=C1C2=CCCC1(O)C#CC=CC#CC2O (centres unmarked) [Example 4, 1,8-Dihydroxy-bicyclo7.3.1]trideca-4,9-diene-2,6-divn-13-one]
IC50 ([1]; HCT-116): 0.037 µg/mL and 0.043 µg/mL and < 0.031 µg/mL
IC50 ([2]; HCT/VP35): 0.042 µg/mL and 0.046 µg/mL and 0.072 µg/mL
IC50 [3]: < 0.031 µg/mL and 0.047 µg/mL
Survival d.5 (P388 leukemia; 1 mg/kg/dose): 6/6
Med. Survival Time (P388 leukemia; 1 mg/kg/dose): 13 days
% T/C (P388 leukemia; 1 mg/kg/dose): 118%
Survival d.5 (P388 leukemia; 2 mg/kg/dose): 6/6
Med. Survival Time (P388 leukemia; 2 mg/kg/dose): 16.5 days
% T/C (P388 leukemia; 2 mg/kg/dose): 150%
Survival d.5 (P388 leukemia; 4 mg/kg/dose): 6/6
Med. Survival Time (P388 leukemia; 4 mg/kg/dose): 20.0 days
% T/C (P388 leukemia; 4 mg/kg/dose): 182%
Survival d.5 (P388 leukemia; 8 mg/kg/dose): 6/6
number of surviving mice on day 39 (P388 leukemia; 8 mg/kg/dose, day 39): 4 mice
Med. Survival Time (P388 leukemia; 8 mg/kg/dose): > 39 days
% T/C (P388 leukemia; 8 mg/kg/dose): > 355%
Survival d.5 (P388 leukemia; 16 mg/kg/dose): 6/6
Med. Survival Time (P388 leukemia; 16 mg/kg/dose): 9.5 days
% T/C (P388 leukemia; 16 mg/kg/dose): 86%
Survival d.5 (P388 leukemia; 32 mg/kg/dose): 6/6
Med. Survival Time (P388 leukemia; 32 mg/kg/dose): 7 days
% T/C (P388 leukemia; 32 mg/kg/dose): 64%
activity against P388 leukemia (P388 leukemia; conclusion from Table II): high activity against P388 leukemia

O=C1CC2C(=O)C(O)(C#CC=CC#CC2O)C1 (centres unmarked) [1,8-dihydroxy-bicyclo[7.3.1]tridec-4-ene-2,6-diyn-11,13-dione]
DNA cleavage in vitro (DNA): shown to cleave DNA in vitro
